For data set [1], the system named is KB-V-1 cells. As to the kind of experiment: Ceramide and sphingomyelin metabolism ([3H]palmitic acid labeling) in vinblastine resistant epidermoid carcinoma cells. The format is cell-based, human. Particulars: PSC 833 5.0 μM. Here is the method:
(§1) Cells. Experiments were conducted using the human MDR breast cancer cell line, MCF-7 AdrR (adriamycin resistant) provided by Drs. Kenneth H. Cowan and Merrill E. Goldsmith, National Cancer Institute. Cells were grown in RPMI-1640 medium containing 10% FBS (fetal bovine serum) and antibiotics as previously described (Lavie, 1997) and cultures were maintained in a humidified 6.5% CO2 atmosphere incubator. Trypsin (0.05%) and EDTA (0.5 mM) were used for subculture. Plastic tissue cultureware, was from Costar (96-well plates) and Corning (6-well plates, 6-cm dishes, T-75 flasks). Limited experiments were conducted using the human MDR epidermoid carcinoma cell line, KBV-1, provided by Dr. Michael M. Gottesman, National Cancer Institute. Cells were maintained as described (Lavie, 1996). Vinblastine was eliminated from the culture medium during the experiments.
Cell Radiolabeling and Lipid/Glycolipid Analysis. To follow lipid metabolism, cells were grown in the presence of tritiated ceramide precursors, L-[^3H]serine (20 Ci/mmol) (American Radiolabeled Chemicals, Inc., St. Louis), and [9, 10-^3H]palmitic acid (50 Ci/mmol) (DuPont NEN). […] After radiolabeling, 0.1 ml aliquots of medium were removed and analyzed by LSC (Lavie, 1997), in order to determine cellular uptake of the tritiated compounds. […]
Radioactivity in glucosylceramide was analyzed by TLC resolution of total lipids (Silica Gel G) using a solvent system containing chloroform/methanol/ammonium hydroxide (80:20:2, v/v/v). Migration of glucosylceramide on TLC was compared with that of commercial standard (glucocerebrosides, Gaucher's spleen, Matreya, Inc., Pleasant Gap, Pa.), and lipid spots, after iodine vapor visualization, were scraped for tritium quantitation by LSC (Lavie, 1997; Lavie, 1996). […] After iodine visualization of lipids, areas of the chromatogram corresponding to ceramide and sphingomyelin were scraped into minivials containing 0.5 ml water followed by 4.5 ml EcoLume (ICN, Costa Mesa, Calif.), and samples were analyzed for tritium by liquid scintillation spectrometry. […]

Data set [2] deals with MCF-7-wt cells. Briefly: Cytotoxicity assay (Promega) in chemosensitive wild-type breast cancer cells. The class given is cell-based, human. Particulars: PSC 833 10 μM, four days.
The test system of data set [3] is MCF-7-AdrR cells.
Data set [4] concerns MCF-7-AdrR cells. As to the kind of experiment: Cell radiolabeling and TLC/LSC analysis of ceramide, glucosylceramide and sphingomyelin in MDR breast cancer cells. The format is cell-based, human. Particulars: for ceramide level, increase over control: adriamycin 2.5, PSC 833 5.0 μM, tamoxifen 5.0 μM alone or combined, 24 h, [3H]palmitic acid. The procedure:
as §1
Cell Radiolabeling and Lipid/Glycolipid Analysis. To follow lipid metabolism, cells were grown in the presence of tritiated ceramide precursors, L-[^3H]serine (20 Ci/mmol) (American Radiolabeled Chemicals, Inc., St. Louis), and [9, 10-^3H]palmitic acid (50 Ci/mmol) (DuPont NEN). Labeling media were prepared by adding microliter amounts of tritiated compounds (supplied in ethanol or sterile water) to medium containing only 5% FBS. After radiolabeling, 0.1 ml aliquots of medium were removed and analyzed by LSC (Lavie, 1997), in order to determine cellular uptake of the tritiated compounds. Cell monolayers were then rinsed twice with cold phosphate-buffered saline. Ice cold methanol containing 2% acetic acid was added, and cells were scraped free of the substratum (plastic scraper) for lipid extraction using chloroform and water in 1-dram glass vials as described (Lavie, 1997; Lavie, 1996; Bligh and Dyer, 1959). After centrifugation, the resulting organic lower phase of the biphasic extraction was withdrawn, transferred to a glass vial, and evaporated to dryness under a stream of nitrogen.
Radioactivity in glucosylceramide was analyzed by TLC resolution of total lipids (Silica Gel G) using a solvent system containing chloroform/methanol/ammonium hydroxide (80:20:2, v/v/v). Migration of glucosylceramide on TLC was compared with that of commercial standard (glucocerebrosides, Gaucher's spleen, Matreya, Inc., Pleasant Gap, Pa.), and lipid spots, after iodine vapor visualization, were scraped for tritium quantitation by LSC (Lavie, 1997; Lavie, 1996). […] Ceramide and sphingomyelin commercial standards (brain-derived) were from Avanti Polar Lipids, Alabaster, Ala. After iodine visualization of lipids, areas of the chromatogram corresponding to ceramide and sphingomyelin were scraped into minivials containing 0.5 ml water followed by 4.5 ml EcoLume (ICN, Costa Mesa, Calif.), and samples were analyzed for tritium by liquid scintillation spectrometry. Alternative analysis of ceramide consisted of subjecting an aliquot of the total cell lipid extract to mild alkaline hydrolysis (0.1 N KOH in methanol, 1 h at 37° C.) followed by re-extraction (Lavie, 1997). […] The same can also be done without tritium by simply applying 100-200 μg total cell lipid to TLC plates and developing them in the appropriate solvent, then spraying them with 30% H2SO4, charring the plate in an oven at 180° C. for 20 min, and measuring lipid mass by densitometry.

The subject of data set [5] is KB-V-1 cells. As to the kind of experiment: Cytotoxicity in vinblastine resistant epidermoid carcinoma cells (estimated, not measured). Particulars: PSC 833 5.0 μM, 24 h. The class given is cell-based, human. Here is the method: To determine whether the influence of PSC 833 on ceramide metabolism was restricted to certain cell types, a vinblastine resistant epidermoid carcinoma, KB-V-1, was tested. In KB-V-1 cells exposed to 5.0 μM PSC 833 for 24 h, cellular levels of tritiated ceramide ([^3H]palmitic acid labeling) increased 8.7-fold over untreated cells. This is 4-fold higher than the ceramide increase elicited by PSC 833 in MCF-7-AdrR cells (FIG. 7). The increase in ceramide in KB-V-1 cells was accompanied by cytotoxicity, which while not measured was estimated at 80% cell death. Additionally, the PSC 833-induced increase in [^3H]ceramide was not accompanied by decreases in [^3H]sphingomyelin, but rather a slight increase in radiolabeled sphingomyelin (33% over the control).

In data set [6] the test system is MCF-7 cells. Briefly: Analysis of ceramide and glucosylceramide ([3H]palmitic acid, TLC) in parental cells. Particulars: adriamycin. The class given is cell-based, human. The procedure: (§2) Analysis of Ceramide and Glucosylceramide. Analyses were performed as previously described (Lavie, 1997). Cellular lipids were radiolabeled by incubating cells with [^3H]palmitic acid (2.5 μCi/ml culture medium) for 24 hr. After removal of medium, cells were rinsed twice with PBS (pH 7.4), and lipids were extracted (Lavie, 1997). After nitrogen evaporation of solvents, total lipids were resuspended in 100 μl of chloroform /methanol (1:1, v/v), and aliquots were applied to TLC plates. Ceramide was resolved using solvent system I, which contained chloroform/acetic acid (90:10, v/v). […] Commercial lipid standards were co-chromatographed. After development, lipids were visualized by iodine vapor staining, and areas of interest were scraped into 0.5 ml water. EcoLume counting fluid (4.5 ml) was added, the samples were mixed, and radioactivity was quantitated by liquid scintillation spectrometry.
(§3) To further define the mechanism of drug resistance in MCF-7/GCS cells, cells were challenged with adriamycin and the metabolism of ceramide was evaluated (FIGS. 16A-16B). […] After 24 and 48 hr with adriamycin, GC levels in the GCS-transfected cells increased 1.4- and 2.1-fold, respectively.

For data set [7], the system named is MCF-7/GCS cells. As to the kind of experiment: Analysis of ceramide and glucosylceramide ([3H]palmitic acid, TLC) in GCS-transfected cells. As to conditions: adriamycin. The class given is cell-based, human. The procedure: as §2, §3
Data set [8] concerns MCF-7 wild-type cells. As to the kind of experiment: Apoptosis by oligonucleosomal DNA fragmentation (gel electrophoresis) in wild-type cells. The class given is cell-based, human. As to conditions: doxorubicin 1.7 μM, 72 hr. The procedure:
(§4) The effect of anthracyclines such as doxorubicin on ceramide formation is illustrated in FIG. 10A. Cells were seeded in 6-well plates (80,000 cells/well) in 2.0 ml medium containing 5% FBS. After 2 days of growth, cells were given doxorubicin (1.7 μM) and [^3H]palmitic acid (2.0 μCi/well) for 72 hr. Total cell lipids were extracted (Bligh and Dyer, 1959) and analyzed by applying 150,000 cpm (for ceramide analysis) and 50,000 cpm (for sphingomyelin analysis) from each sample to the origin of a Silica Gel G TLC plate and resolving [^3H]ceramide and [^3H]sphingomyelin as described in the Methods section. […] FIG. 10A illustrates that exposure of wild-type human breast cancer cells to doxorubicin (1.7 μM) caused, after 72 hours, a 6-fold increase in ceramide. […] Control and doxorubicin treated (1.7 μM) cells were grown in 10 cm culture dishes for 72 hr. Cells were harvested by trypsin-EDTA, centrifuged then incubated with digestion buffer (100 mM NaCl, 25 mM EDTA, 10 mM Tris-HCI, 0.5% SDS, 0.3 mg/ml Proteinase K, pH 8.0) at 45° C. for 18 hrs. DNA was extracted with phenol/chloroform/isoamyl alcohol (25:24:1, v/v/v) and precipitated in 1/3 volume 7.5 M ammonium acetate and 2 volume2 100% ethanol at −20° C. overnight. […] Re-extracted DNA (15 μg) was analyzed by electrophoresis on a 2% agarose gel in TAE buffer (40 mM Tris-acetate, 1.0 mM EDTA, pH 8.3). […]

The subject of data set [9] is MCF-7 cells. Briefly: cells. As to conditions: Homo sapiens, MCF7, 96 h, read-out: EC50 (cytotoxicity). The class given is cell-based. The procedure: Cytotoxicity Assay. The assay was performed as previously described (Lavie, 1997). […] Cultures were incubated at 37° C. for 24 hr before addition of drug. Drugs were added in FBS-free medium (0.1 ml), and cells were cultured at 37° C. for the indicated periods. Drug cytotoxicity was determined using the Promega 96 Aqueous cell proliferation assay kit. Absorbance at 490 nm was recorded using an ELISA reader (Molecular Devices, San Diego, Calif.).
Adriamycin was used to assess the influence of GCS transfection on cellular response to anthracyclines. After pretreatment with doxycycline for two days, MCF-7/GCS cells were incubated with increasing concentrations of adriamycin for four days. […] It was observed that MCF-7/GCS cells were resistant to ceramide toxicity as well. […] However, the EC50 in the TC group was nearly identical with that of MCF-7 cells, there being no statistical difference between the two groups (FIG. 14C).

The test system of data set [10] is MCF-7 wild-type cells. Briefly: Ceramide and sphingomyelin formation ([3H]palmitic acid, TLC) in wild-type breast cancer cells. The format is cell-based, human. As to conditions: doxorubicin 1.7 μM. The procedure: as §4
Data set [11] relates to MCF-7-AdrR cells. Briefly: cells. Particulars: Homo sapiens, 72 h, read-out: growth inhibition.
Where [12] appears, read: increasing concentration, 60 min then [3H]palmitic acid for 23 h.

Here are results for 2 compounds from US6982142B2, “Methods for screening therapeutically effective agents” (John Wayne Cancer Institute, priority 1997, dated 2006).

Structures can show the parent of a compound that is named as a salt.

With `C/C=C/C[C@@H](C)C(=O)[C@H]1C(=O)N[C@@H](C(C)C)C(=O)N(C)CC(=O)N(C)[C@@H](CC(C)C)C(=O)N[C@@H](C(C)C)C(=O)N(C)[C@@H](CC(C)C)C(=O)N[C@@H](C)C(=O)N[C@H](C)C(=O)N(C)[C@@H](CC(C)C)C(=O)N(C)[C@@H](CC(C)C)C(=O)N(C)[C@@H](C(C)C)C(=O)N1C` [PSC 833, ([3′-Keto-Bmt1]-Val2)-cyclosporine], in [1], the “ceramide increase in KB-V-1 relative to increase in MCF-7-AdrR cells” value is listed as 4 fold. In data set [1] (24 h), the “radiolabeled sphingomyelin, increase over the control” value was found to be 33% and the “tritiated ceramide level, increase over untreated cells” value stood at 8.7 fold. The “reduction in cell survival” value in data set [2] stood at 80%. For the same compound, in data set [3] (PSC 833 0.5 μM, 5-days), the cell kill was 10%. For the same compound, the “reduction in cell survival” value in [3] (PSC 833 10 μM, four days) is recorded as 35%. Also, the cell viability result in [3] (adriamycin 2.5 μM, PSC 833 5.0, tamoxifen 5.0 μM alone or combined, 3-days) is recorded as “without influence”. Further, the “concentration at which activation of glucosylceramide formation was apparent” value in data set [4] (60 min then [3H]palmitic acid for 23 h) came out at 0.1 µM. Moreover, in data set [4] (PSC 833 2.5 μM, overnight, [3H]serine), the “glucosylceramide level (TLC autoradiography)” value was “increased markedly”. The “sphingomyelin, % of control” value in [4] (PSC 833 5.0 μM, 2 h) is reported as 150 % of control. Besides, the “time at which activation of cellular ceramide formation was discernible” value in [4] (PSC 833 5.0 μM, exposure 15 min-4 h) is 30 min. The “ceramide level, increase over control” value in data set [4] is listed as 4.8 fold. Moreover, in data set [4] (setting [12]), the “cellular ceramide formation, dose-response” value is “elicited an increase in cellular ceramide formation” and the “glucosylceramide formation, dose-response” value is “resulted in glucosylceramide synthesis”. Further, the “cell death (not measured, estimated)” value in data set [5] was around 80%.
With `COc1cccc2c1C(=O)c1c(O)c3c(c(O)c1C2=O)C[C@@](O)(C(=O)CO)C[C@@H]3O[C@H]1C[C@H](N)[C@H](O)[C@H](C)O1` [adriamycin, doxorubicin hydrochloride], the GC levels entry in data set [6] (24 and 48 hr) is on record as “little impact”. The ceramide level increase came out at 3.4 fold in data set [6] (24 hr), 3 fold in data set [6] (48 hr), 1.4 fold in [7] (24 hr) and 1.2 fold in data set [7] (48 hr). Also, the GC level increase in data set [7] (24 hr) worked out at 1.4 fold; in data set [7] (48 hr), 2.1 fold. Also, in data set [8], the “apoptosis (DNA laddering)” value was “gave rise to apoptosis”. Moreover, in data set [9], the EC50 (usually the concentration that produces a half-maximal response) was determined as 0.37 ± 0.01 µM. The compound further registered a cell survival in data set [3] (adriamycin 0.2 μM alone, 5-days) of 90%. Besides, the “cell survival, % of control” value in [3] (adriamycin 0.1-1.0 μM, 5-days) is given as 80-95 % of control. For the same compound, the “ceramide level, increase over control” value in data set [4] is “not influenced”. Further, the ceramide increase in [10] (72 hours) was 6 fold. The sphingomyelin production entry in [10] (72 hr) is given as “increased only slightly”. In addition, the inhibition (commonly how much of the control response was suppressed) at 2.5 µM in data set [11] turned out to be 23%.
